Experimental data: article PMC7070407, “Moringin, A Stable Isothiocyanate from Moringa oleifera, Activates the Somatosensory and Pain Receptor TRPA1 Channel In Vitro” (Molecules, 2020)

Experiments:
rat TRPA1 = target: T1, rat TRPA1 (Rattus norvegicus, UniProt Q6RI86); assay: Elevation of intracellular Ca2+ (Fluo-4) in HEK-293 cells stably transfected with rat TRPA1; agonist and antagonist/desensitizing behaviour; format: cell-based
T1 construct: expressed in transfected cells; host or cells: HEK-293
T1 sequence (Q6RI86 whole entry): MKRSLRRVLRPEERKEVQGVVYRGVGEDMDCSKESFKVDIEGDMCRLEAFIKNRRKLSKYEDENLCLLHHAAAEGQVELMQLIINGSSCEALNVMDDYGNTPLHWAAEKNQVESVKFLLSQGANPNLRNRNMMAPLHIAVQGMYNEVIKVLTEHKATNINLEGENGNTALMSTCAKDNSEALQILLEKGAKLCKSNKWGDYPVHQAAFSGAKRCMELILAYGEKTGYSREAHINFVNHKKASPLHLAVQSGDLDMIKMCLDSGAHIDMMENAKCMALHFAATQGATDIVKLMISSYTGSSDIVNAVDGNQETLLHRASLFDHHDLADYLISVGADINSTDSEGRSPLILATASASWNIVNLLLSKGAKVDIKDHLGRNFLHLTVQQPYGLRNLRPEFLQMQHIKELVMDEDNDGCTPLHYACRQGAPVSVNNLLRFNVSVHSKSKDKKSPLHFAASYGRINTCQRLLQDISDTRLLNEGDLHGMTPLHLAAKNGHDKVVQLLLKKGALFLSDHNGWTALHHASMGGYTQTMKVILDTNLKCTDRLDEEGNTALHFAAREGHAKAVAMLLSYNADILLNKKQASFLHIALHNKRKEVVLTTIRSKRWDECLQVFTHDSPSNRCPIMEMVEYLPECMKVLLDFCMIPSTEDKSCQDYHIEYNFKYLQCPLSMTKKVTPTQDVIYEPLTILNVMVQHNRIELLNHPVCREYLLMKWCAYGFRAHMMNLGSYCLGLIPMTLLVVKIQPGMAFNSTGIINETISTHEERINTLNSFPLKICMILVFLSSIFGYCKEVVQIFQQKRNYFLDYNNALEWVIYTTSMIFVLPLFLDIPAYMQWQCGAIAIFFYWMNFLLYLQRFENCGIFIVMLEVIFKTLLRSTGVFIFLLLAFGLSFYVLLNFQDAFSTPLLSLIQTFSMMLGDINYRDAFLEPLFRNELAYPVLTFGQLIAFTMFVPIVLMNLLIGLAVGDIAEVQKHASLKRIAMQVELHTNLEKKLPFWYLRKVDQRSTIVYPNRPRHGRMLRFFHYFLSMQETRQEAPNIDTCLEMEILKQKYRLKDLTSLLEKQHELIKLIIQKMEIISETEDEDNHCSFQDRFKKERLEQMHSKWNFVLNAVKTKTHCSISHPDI
Description: Assay of rat TRPA1, TRPV2, TRPV3, TRPV4, TRPM8 or human TRPV1 mediated elevation of intracellular Ca^2+ in transfected HEK-293 cells are been performed as described. Briefly, human embryonic kidney (HEK-293) cells, stably transfected with rat TRPA1, TRPV2, TRPV3, TRPV4, TRPM8 or human TRPV1 (selected by Geneticin 600 μg mL^−1) or not transfected, were cultured in EMEM + 2 mM Glutamine + 1% Non-Essential Amino Acids (NEAA) + 10% FBS and maintained at 37 °C with 5% CO2. Stable transfections were checked by quantitative real-time polymerase chain reaction (PCR), quantitative real-time PCR was performed by an iCycler-iQ (Bio-Rad, Hercules, CA, USA) in a 20 μL reaction mixture containing the following: 10 μL iQ SYBR Green Supermix 2X (Bio-Rad), 20 ng of cDNA (calculated on the basis of the retro-transcribed RNA), and 330 nM for each primer. Optimized primers for SYBR Green analysis (and relative TaOpt) and optimum annealing temperatures were designed by Allele-Id software version 7.0 (Biosoft International, Palo Alto, CA, USA) and were synthesized (HPLC-purification grade) by MWG-Biotech AG (Ebersberg, Germany). Assays were performed in quadruplicate (maximal ΔCt of replicate samples, <0.5). Relative expression analysis, correct for PCR efficiency and normalized with respect to reference genes β-actin and glyceraldehyde 3-phosphate dehydrogenase, was performed by GENEX software (Bio-Rad). […] The day of the experiment the cells were loaded with Fluo-4 AM (4 μM in DMSO containing 0.02% Pluronic F-127) for 1 h in the dark at room temperature, rinsed and resuspended in Tyrode’s solution (145 mM NaCl, 2.5 mM KCl, 1.5 mM CaCl2, 1.2 mM MgCl2, 10 mM D-glucose, and 10 mM HEPES, pH 7.4), finally transferred to a quartz cuvette of a spectrofluorimeter (Perkin-Elmer LS50B; λEX = 488 nm, λEM = 516 nm) equipped with PTP-1 Fluorescence Peltier System (PerkinElmer Life and Analytical Sciences, Waltham, MA, USA) under continuous stirring. Cell fluorescence before and after the addition of various concentrations of test compounds and extracts were measured normalizing the effects against the response to ionomycin (4 µM). The values of the effect on [Ca^2+]i in HEK-293 cells not transfected are used as baseline and subtracted from the values obtained from transfected cells. […] The potency of the compounds (EC50 values) are determined as the concentration required to produce half-maximal increases in [Ca^2+]i. In TRPV3 assay TRPV3-expressing HEK293 cells were first sensitized with the structurally unrelated agonist 2-aminoethoxydiphenyl borate (100 μM). Antagonist/desensitizing behaviour is evaluated against the agonist of the TRP analyzed by adding the compounds directly in the quartz cuvette 5 min before stimulation of cells with the agonist. […] In order to assess functional antagonism of TRPA1 channels, AP18, 4-(4-chlorophenyl)-3-methyl-3-buten-2-one oxime […] Dose-response curve fitting (sigmoidal dose-response variable slope) and parameter estimation were performed with Graph-Pad Prism8® (GraphPad Software Inc., San Diego, CA, USA). All determinations were performed at least in triplicate.

human TRPV1 = target: T2, human TRPV1 (Homo sapiens, UniProt Q8NER1); assay: Elevation of intracellular Ca2+ (Fluo-4) in HEK-293 cells stably transfected with human TRPV1; format: cell-based
T2 construct: expressed in transfected cells; host or cells: HEK-293
T2 sequence (Q8NER1 whole entry): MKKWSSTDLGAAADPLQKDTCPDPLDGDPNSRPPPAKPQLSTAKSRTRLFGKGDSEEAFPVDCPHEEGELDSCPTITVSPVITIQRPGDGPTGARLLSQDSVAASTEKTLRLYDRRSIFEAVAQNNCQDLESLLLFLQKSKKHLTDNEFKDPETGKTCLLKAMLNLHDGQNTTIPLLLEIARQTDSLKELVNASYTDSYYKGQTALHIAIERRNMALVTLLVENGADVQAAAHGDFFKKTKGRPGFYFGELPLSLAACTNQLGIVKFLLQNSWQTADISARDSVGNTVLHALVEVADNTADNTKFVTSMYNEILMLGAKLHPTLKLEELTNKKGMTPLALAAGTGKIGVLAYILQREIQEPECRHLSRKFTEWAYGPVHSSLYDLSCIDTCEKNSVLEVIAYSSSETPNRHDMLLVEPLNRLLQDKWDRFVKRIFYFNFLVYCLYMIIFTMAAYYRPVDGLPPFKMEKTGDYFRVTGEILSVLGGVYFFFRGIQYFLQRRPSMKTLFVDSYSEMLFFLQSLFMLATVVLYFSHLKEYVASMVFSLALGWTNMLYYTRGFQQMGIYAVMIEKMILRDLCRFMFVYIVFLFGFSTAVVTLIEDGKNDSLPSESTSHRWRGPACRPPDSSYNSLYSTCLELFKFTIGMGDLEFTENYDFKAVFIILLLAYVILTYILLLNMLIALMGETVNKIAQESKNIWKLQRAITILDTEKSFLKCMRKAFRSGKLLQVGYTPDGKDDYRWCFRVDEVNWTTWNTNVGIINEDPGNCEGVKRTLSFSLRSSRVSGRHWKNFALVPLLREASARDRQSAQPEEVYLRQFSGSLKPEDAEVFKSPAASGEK
Description: Assay of rat TRPA1, TRPV2, TRPV3, TRPV4, TRPM8 or human TRPV1 mediated elevation of intracellular Ca^2+ in transfected HEK-293 cells are been performed as described. Briefly, human embryonic kidney (HEK-293) cells, stably transfected with rat TRPA1, TRPV2, TRPV3, TRPV4, TRPM8 or human TRPV1 (selected by Geneticin 600 μg mL^−1) or not transfected, were cultured in EMEM + 2 mM Glutamine + 1% Non-Essential Amino Acids (NEAA) + 10% FBS and maintained at 37 °C with 5% CO2. Stable transfections were checked by quantitative real-time polymerase chain reaction (PCR), quantitative real-time PCR was performed by an iCycler-iQ (Bio-Rad, Hercules, CA, USA) in a 20 μL reaction mixture containing the following: 10 μL iQ SYBR Green Supermix 2X (Bio-Rad), 20 ng of cDNA (calculated on the basis of the retro-transcribed RNA), and 330 nM for each primer. Optimized primers for SYBR Green analysis (and relative TaOpt) and optimum annealing temperatures were designed by Allele-Id software version 7.0 (Biosoft International, Palo Alto, CA, USA) and were synthesized (HPLC-purification grade) by MWG-Biotech AG (Ebersberg, Germany). Assays were performed in quadruplicate (maximal ΔCt of replicate samples, <0.5). Relative expression analysis, correct for PCR efficiency and normalized with respect to reference genes β-actin and glyceraldehyde 3-phosphate dehydrogenase, was performed by GENEX software (Bio-Rad). […] The day of the experiment the cells were loaded with Fluo-4 AM (4 μM in DMSO containing 0.02% Pluronic F-127) for 1 h in the dark at room temperature, rinsed and resuspended in Tyrode’s solution (145 mM NaCl, 2.5 mM KCl, 1.5 mM CaCl2, 1.2 mM MgCl2, 10 mM D-glucose, and 10 mM HEPES, pH 7.4), finally transferred to a quartz cuvette of a spectrofluorimeter (Perkin-Elmer LS50B; λEX = 488 nm, λEM = 516 nm) equipped with PTP-1 Fluorescence Peltier System (PerkinElmer Life and Analytical Sciences, Waltham, MA, USA) under continuous stirring. Cell fluorescence before and after the addition of various concentrations of test compounds and extracts were measured normalizing the effects against the response to ionomycin (4 µM). The values of the effect on [Ca^2+]i in HEK-293 cells not transfected are used as baseline and subtracted from the values obtained from transfected cells. […] The potency of the compounds (EC50 values) are determined as the concentration required to produce half-maximal increases in [Ca^2+]i. In TRPV3 assay TRPV3-expressing HEK293 cells were first sensitized with the structurally unrelated agonist 2-aminoethoxydiphenyl borate (100 μM). Antagonist/desensitizing behaviour is evaluated against the agonist of the TRP analyzed by adding the compounds directly in the quartz cuvette 5 min before stimulation of cells with the agonist. […]

rat TRPV2 = target: T3, rat TRPV2 (Rattus norvegicus, UniProt Q9WUD2); assay: Elevation of intracellular Ca2+ (Fluo-4) in HEK-293 cells stably transfected with rat TRPV2; format: cell-based
T3 construct: expressed in transfected cells; host or cells: HEK-293
T3 sequence (Q9WUD2 1-761): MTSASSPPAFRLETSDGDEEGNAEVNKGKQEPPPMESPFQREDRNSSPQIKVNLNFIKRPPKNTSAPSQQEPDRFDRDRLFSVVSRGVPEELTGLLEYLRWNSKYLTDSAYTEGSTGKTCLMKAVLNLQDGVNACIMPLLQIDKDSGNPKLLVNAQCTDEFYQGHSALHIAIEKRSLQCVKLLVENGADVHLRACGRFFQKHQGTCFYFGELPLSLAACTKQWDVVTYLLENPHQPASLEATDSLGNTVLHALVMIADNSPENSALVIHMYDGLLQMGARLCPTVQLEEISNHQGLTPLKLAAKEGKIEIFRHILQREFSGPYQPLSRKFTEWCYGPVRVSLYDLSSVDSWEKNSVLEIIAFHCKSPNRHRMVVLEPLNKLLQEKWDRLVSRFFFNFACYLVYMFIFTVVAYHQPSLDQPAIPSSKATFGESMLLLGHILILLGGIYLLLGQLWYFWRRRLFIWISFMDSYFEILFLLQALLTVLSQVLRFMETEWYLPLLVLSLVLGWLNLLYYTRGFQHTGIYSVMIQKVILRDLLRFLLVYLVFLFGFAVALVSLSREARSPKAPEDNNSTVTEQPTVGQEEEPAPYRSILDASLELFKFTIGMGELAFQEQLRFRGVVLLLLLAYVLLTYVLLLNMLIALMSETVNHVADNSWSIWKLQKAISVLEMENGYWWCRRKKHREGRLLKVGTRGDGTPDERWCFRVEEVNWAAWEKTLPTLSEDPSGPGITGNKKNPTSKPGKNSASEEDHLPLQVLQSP
Description: (§1) Assay of rat TRPA1, TRPV2, TRPV3, TRPV4, TRPM8 or human TRPV1 mediated elevation of intracellular Ca^2+ in transfected HEK-293 cells are been performed as described. Briefly, human embryonic kidney (HEK-293) cells, stably transfected with rat TRPA1, TRPV2, TRPV3, TRPV4, TRPM8 or human TRPV1 (selected by Geneticin 600 μg mL^−1) or not transfected, were cultured in EMEM + 2 mM Glutamine + 1% Non-Essential Amino Acids (NEAA) + 10% FBS and maintained at 37 °C with 5% CO2. Stable transfections were checked by quantitative real-time polymerase chain reaction (PCR), quantitative real-time PCR was performed by an iCycler-iQ (Bio-Rad, Hercules, CA, USA) in a 20 μL reaction mixture containing the following: 10 μL iQ SYBR Green Supermix 2X (Bio-Rad), 20 ng of cDNA (calculated on the basis of the retro-transcribed RNA), and 330 nM for each primer. […] The day of the experiment the cells were loaded with Fluo-4 AM (4 μM in DMSO containing 0.02% Pluronic F-127) for 1 h in the dark at room temperature, rinsed and resuspended in Tyrode’s solution (145 mM NaCl, 2.5 mM KCl, 1.5 mM CaCl2, 1.2 mM MgCl2, 10 mM D-glucose, and 10 mM HEPES, pH 7.4), finally transferred to a quartz cuvette of a spectrofluorimeter (Perkin-Elmer LS50B; λEX = 488 nm, λEM = 516 nm) equipped with PTP-1 Fluorescence Peltier System (PerkinElmer Life and Analytical Sciences, Waltham, MA, USA) under continuous stirring. […]

rat TRPV3 = target: T4, rat TRPV3 (Rattus norvegicus, UniProt Q4QYD9); assay: Elevation of intracellular Ca2+ (Fluo-4) in HEK-293 cells stably transfected with rat TRPV3; format: cell-based; settings: TRPV3, against reference agonist thymol 100 μM
T4 construct: expressed in transfected cells; host or cells: HEK-293
T4 sequence (Q4QYD9 1-791): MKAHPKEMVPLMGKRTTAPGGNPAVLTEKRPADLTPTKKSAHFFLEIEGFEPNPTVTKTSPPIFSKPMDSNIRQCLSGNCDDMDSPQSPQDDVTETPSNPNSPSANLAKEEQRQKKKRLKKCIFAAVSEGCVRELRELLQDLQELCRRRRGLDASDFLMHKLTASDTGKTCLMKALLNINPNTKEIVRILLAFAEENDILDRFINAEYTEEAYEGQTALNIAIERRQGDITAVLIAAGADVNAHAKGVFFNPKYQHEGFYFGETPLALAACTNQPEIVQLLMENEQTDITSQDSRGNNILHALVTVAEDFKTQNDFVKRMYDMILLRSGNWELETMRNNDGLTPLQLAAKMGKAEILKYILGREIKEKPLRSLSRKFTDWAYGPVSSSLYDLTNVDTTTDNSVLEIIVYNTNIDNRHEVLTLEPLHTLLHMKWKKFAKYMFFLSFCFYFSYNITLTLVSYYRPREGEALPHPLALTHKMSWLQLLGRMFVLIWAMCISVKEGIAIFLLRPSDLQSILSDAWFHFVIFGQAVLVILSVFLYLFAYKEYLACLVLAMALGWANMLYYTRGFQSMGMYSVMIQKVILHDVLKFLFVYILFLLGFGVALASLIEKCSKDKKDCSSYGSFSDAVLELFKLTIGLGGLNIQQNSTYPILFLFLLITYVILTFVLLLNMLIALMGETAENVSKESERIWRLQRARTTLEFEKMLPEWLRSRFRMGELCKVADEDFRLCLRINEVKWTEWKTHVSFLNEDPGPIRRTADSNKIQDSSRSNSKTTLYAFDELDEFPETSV
Description: as §1

rat TRPV4 = target: T5, rat TRPV4 (Rattus norvegicus, UniProt Q9ERZ8); assay: Elevation of intracellular Ca2+ (Fluo-4) in HEK-293 cells stably transfected with rat TRPV4; format: cell-based
T5 construct: expressed in transfected cells; host or cells: HEK-293
T5 sequence (Q9ERZ8 whole entry): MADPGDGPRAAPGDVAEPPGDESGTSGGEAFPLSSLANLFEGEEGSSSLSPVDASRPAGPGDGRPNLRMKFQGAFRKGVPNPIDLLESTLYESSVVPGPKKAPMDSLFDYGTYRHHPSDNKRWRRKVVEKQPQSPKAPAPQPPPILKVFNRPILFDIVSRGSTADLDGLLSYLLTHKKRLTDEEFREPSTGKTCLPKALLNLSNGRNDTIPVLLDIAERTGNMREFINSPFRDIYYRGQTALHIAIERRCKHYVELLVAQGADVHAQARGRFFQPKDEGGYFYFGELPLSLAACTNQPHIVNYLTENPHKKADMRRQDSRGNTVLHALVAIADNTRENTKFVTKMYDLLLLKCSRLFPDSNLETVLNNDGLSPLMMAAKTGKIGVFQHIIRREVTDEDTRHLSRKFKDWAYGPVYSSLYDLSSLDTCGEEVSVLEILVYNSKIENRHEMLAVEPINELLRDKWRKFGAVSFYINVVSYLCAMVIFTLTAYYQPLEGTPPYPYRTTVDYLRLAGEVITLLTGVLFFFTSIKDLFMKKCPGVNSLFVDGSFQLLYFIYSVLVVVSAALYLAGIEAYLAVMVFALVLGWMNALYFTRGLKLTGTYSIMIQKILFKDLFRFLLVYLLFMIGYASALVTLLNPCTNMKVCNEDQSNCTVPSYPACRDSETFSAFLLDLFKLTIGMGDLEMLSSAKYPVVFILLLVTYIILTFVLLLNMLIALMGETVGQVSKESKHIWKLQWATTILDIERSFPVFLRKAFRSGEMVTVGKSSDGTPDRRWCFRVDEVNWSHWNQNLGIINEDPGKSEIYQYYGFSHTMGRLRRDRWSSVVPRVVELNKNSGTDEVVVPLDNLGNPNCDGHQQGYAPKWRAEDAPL
Description: as §1

rat TRPM8 = target: T6, rat TRPM8 (Rattus norvegicus, UniProt Q8R455); assay: Elevation of intracellular Ca2+ (Fluo-4) in HEK-293 cells stably transfected with rat TRPM8; format: cell-based
T6 construct: expressed in transfected cells; host or cells: HEK-293
T6 sequence (Q8R455 whole entry): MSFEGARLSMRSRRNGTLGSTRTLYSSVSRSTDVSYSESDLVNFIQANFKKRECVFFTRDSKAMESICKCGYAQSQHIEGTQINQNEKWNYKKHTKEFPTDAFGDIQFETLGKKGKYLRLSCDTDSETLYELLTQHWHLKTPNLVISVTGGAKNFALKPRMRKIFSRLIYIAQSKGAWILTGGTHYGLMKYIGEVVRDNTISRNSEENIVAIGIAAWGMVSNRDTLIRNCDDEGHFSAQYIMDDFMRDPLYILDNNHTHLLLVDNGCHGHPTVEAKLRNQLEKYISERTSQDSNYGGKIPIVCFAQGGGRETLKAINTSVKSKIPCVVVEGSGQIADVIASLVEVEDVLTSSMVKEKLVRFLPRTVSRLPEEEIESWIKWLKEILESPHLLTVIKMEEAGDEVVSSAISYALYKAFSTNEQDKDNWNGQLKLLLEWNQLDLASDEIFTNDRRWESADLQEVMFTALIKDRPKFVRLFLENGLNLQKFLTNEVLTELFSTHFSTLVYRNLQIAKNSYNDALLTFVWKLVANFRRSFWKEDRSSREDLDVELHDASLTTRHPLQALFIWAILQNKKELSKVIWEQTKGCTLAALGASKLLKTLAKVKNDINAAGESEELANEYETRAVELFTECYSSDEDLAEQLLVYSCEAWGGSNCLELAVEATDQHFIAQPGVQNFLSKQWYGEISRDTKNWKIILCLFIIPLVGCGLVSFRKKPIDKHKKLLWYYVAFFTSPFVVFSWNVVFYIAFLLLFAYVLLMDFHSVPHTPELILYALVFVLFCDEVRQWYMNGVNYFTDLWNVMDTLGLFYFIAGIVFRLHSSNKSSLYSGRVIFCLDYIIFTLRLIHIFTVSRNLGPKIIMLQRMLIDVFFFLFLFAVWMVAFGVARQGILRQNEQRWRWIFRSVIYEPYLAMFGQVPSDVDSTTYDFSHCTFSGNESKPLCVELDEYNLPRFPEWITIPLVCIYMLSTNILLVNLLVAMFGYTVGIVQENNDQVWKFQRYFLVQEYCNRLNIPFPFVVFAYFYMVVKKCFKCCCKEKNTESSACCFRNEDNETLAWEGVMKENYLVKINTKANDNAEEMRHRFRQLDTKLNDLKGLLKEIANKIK
Description: as §1

[1] = tested on: not transfected HEK-293 cells; assay: Effect on [Ca2+]i in not transfected HEK-293 cells (baseline); format: cell-based, human
Description: Compound and extracts’ effects on intracellular Ca^2+ concentration ([Ca^2+]i) were determined using the selective intracellular fluorescent probe for Ca^2+ Fluo-4. Assay of rat TRPA1, TRPV2, TRPV3, TRPV4, TRPM8 or human TRPV1 mediated elevation of intracellular Ca^2+ in transfected HEK-293 cells are been performed as described. Briefly, human embryonic kidney (HEK-293) cells, stably transfected with rat TRPA1, TRPV2, TRPV3, TRPV4, TRPM8 or human TRPV1 (selected by Geneticin 600 μg mL^−1) or not transfected, were cultured in EMEM + 2 mM Glutamine + 1% Non-Essential Amino Acids (NEAA) + 10% FBS and maintained at 37 °C with 5% CO2. Stable transfections were checked by quantitative real-time polymerase chain reaction (PCR), quantitative real-time PCR was performed by an iCycler-iQ (Bio-Rad, Hercules, CA, USA) in a 20 μL reaction mixture containing the following: 10 μL iQ SYBR Green Supermix 2X (Bio-Rad), 20 ng of cDNA (calculated on the basis of the retro-transcribed RNA), and 330 nM for each primer. […] Cell fluorescence before and after the addition of various concentrations of test compounds and extracts were measured normalizing the effects against the response to ionomycin (4 µM). […] The potency of the compounds (EC50 values) are determined as the concentration required to produce half-maximal increases in [Ca^2+]i. […]

[2] = tested on: Amyotrophic Lateral Sclerosis (ALS) transgenic model; set-up: method as in PMID 26075221; settings: cited from earlier work

C[C@@H]1O[C@@H](Oc2ccc(CN=C=S)cc2)[C@H](O)[C@H](O)[C@H]1O [Moringin, 4-[(α-L-rhamnosyloxy)benzyl]isothiocyanate]
EC50 (rat TRPA1): 3.14 ± 0.16 µM
IC50 (rat TRPA1): 3.6 ± 0.05 µM
Effect of AITC 100 μM administered after pre-incubation with moringin (rat TRPA1; TRPA1-HEK293 cells, pre-incubation with moringin 50 μM): completely inhibited
Efficacy (% AITC 100 µM) (rat TRPA1; rTRPA1-HEK-293, percentage of the effect on [Ca2+]i of AITC 100 µM): 102.6 ± 1.1%
EC50 (human TRPV1): 20.4 ± 1.3 µM
IC50 (human TRPV1): > 50 µM
Efficacy (% Ionomycin 4 µM) (human TRPV1; TRPV1): 46.8 ± 0.7%
Potency EC50 (human TRPV1; TRPV1): weak
IC50 (rat TRPV2): > 100 µM
IC50 (rat TRPV3): > 100 µM
IC50 (rat TRPV4): > 100 µM
IC50 (rat TRPM8): > 100 µM
Increase of [Ca2+]i in not transfected HEK-293 cells, % of the response in rTRPA1 HEK-293 cells [1]: < 10%
Delay of the disease onset [2]: about two weeks
